Test results: patent publication US10780090B2, “Heteroaryl compounds useful as inhibitors of SUMO activating enzyme” (Millennium Pharmaceuticals, Inc., priority 2014, dated 2020)

Target: recombinant human SAE enzyme (Homo sapiens (Human), UniProt Q9UBT2)
Assay: SAE HTRF enzyme assay
Format: biochemical
Conditions: for inhibition at 0.111 µM: read-out: Percent Inhibition
Procedure, shortened: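 This HTRF format monitors Sumo-Flag–Ubc9-GST thioester formation catalysed by 0.11 nM human SAE with 0.5 μM ATP over 105 min at 24° C. Inhibition is expressed at a single concentration or as IC50.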

recombinant human SAE enzyme, sequence (Q9UBT2 whole entry): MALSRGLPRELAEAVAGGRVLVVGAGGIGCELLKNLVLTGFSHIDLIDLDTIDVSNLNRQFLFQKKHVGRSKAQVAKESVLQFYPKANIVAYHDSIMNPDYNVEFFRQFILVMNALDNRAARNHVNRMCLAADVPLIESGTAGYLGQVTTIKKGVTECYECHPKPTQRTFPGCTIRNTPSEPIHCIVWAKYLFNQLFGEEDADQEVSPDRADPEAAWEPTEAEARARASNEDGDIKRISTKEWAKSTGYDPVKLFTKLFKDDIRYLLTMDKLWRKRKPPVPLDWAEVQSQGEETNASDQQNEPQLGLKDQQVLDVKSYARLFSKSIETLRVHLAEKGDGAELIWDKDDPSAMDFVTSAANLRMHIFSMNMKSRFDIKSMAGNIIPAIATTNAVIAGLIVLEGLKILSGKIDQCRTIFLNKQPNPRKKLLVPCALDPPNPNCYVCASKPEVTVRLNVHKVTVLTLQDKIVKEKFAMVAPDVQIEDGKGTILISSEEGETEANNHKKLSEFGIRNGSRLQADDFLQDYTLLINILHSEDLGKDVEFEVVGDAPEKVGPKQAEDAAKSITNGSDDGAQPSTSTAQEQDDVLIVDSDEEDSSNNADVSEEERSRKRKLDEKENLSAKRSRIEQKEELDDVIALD
recombinant human SAE enzyme, sequence (Q9UBE0 whole entry partner): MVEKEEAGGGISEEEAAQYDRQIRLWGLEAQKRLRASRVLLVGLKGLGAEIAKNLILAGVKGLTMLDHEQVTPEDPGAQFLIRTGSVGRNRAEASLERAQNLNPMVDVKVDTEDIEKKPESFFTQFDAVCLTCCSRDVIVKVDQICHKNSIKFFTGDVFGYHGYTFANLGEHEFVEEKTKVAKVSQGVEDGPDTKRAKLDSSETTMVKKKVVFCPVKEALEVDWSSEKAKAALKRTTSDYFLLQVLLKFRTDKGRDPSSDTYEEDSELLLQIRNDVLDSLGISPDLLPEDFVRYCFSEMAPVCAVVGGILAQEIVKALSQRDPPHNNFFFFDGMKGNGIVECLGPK

## Cc1nc2n(c1C)CCO[C@@H]2c1cc(C(=O)c2cncnc2N[C@@H]2C[C@H](COS(N)(=O)=O)[C@@H](O)C2)sc1C (single isomer, unassigned) [I-356b, [(1R,2S,4R)-4-{[5-({4-[(8R)-2,3-dimethyl-5,6-dihydro-8H-imidazo[2,1-c][1,4]oxazin-8-yl]-5-methyl-2-thienyl}carbonyl)pyrimidin-4-yl]amino}-2-hydroxycyclopentyl]methyl sulfamate or [(1R,2S,4R)-4-{[5-({4-[(8S)-2,3-dimethyl-5,6-dihydro-8H-imidazo[2,1-c][1,4]oxazin-8-yl]-5-methyl-2-thienyl}carbonyl)pyrimidin-4-yl]amino}-2-hydroxycyclopentyl]methyl sulfamate]
SAE inhibition at compound concentration 0.111 μM
  Percent Inhibition: 99%
SAE inhibition, class symbols, legend in nM
  IC50: < 10 nM

## NS(=O)(=O)OC[C@H]1C[C@@H](Nc2ncncc2C(=O)c2cc(Cc3cccc(Br)c3)cs2)[C@H](O)[C@@H]1O [I-26, {(1R,2R,3S,4R)-4-[(5-{[4-(3-Bromobenzyl)-2-thienyl]carbonyl}pyrimidin-4-yl)amino]-2,3-dihydroxycyclopentyl}methyl sulfamate]
Concentration 0.111 μM
  inhibition at 0.111 µM: 100%
Class symbols A/B/C
  IC50: < 10 nM

## Cc1oc(C(=O)c2cncnc2N[C@@H]2C[C@H](COS(N)(=O)=O)[C@@H](O)C2)cc1Cc1cccc(Cl)c1 [I-33, [(1R,2S,4R)-4-({5-[4-(3-chlorobenzyl)-5-methyl-2-furoyl]pyrimidin-4-yl}amino)-2-hydroxycyclopentyl]methyl sulfamate]
Concentration 0.111 μM
  inhibition at 0.111 µM: 100%
Class symbols A/B/C
  IC50: < 10 nM

## Cc1oc(C(=O)c2cncnc2N[C@@H]2C[C@H](COS(N)(=O)=O)[C@@H](O)C2)cc1Cc1cccc(Br)c1 [I-34, [(1R,2S,4R)-4-({5-[4-(3-bromobenzyl)-5-methyl-2-furoyl]pyrimidin-4-yl}amino)-2-hydroxycyclopentyl]methyl sulfamate]
Concentration 0.111 μM
  inhibition at 0.111 µM: 99%
Class symbols A/B/C
  IC50: < 10 nM

## NS(=O)(=O)OC[C@H]1C[C@@H](Nc2ncncc2C(=O)c2cc(Cc3cccc(Cl)c3)c(CO)s2)C[C@@H]1O [I-35, {(1R,2S,4R)-4-[(5-{[4-(3-chlorobenzyl)-5-(hydroxymethyl)-2-thienyl]carbonyl}pyrimidin-4-yl)amino]-2-hydroxycyclopentyl}methyl sulfamate]
Concentration 0.111 μM
  inhibition at 0.111 µM: 98%
Class symbols A/B/C
  IC50: < 10 nM

## Cc1sc(C(=O)c2cncnc2N[C@@H]2C[C@H](COS(N)(=O)=O)[C@@H](O)C2)cc1Cn1cc(I)cn1 [I-37, [(1R,2S,4R)-2-hydroxy-4-{[5-({4-[(4-iodo-1H-pyrazol-1-yl)methyl]-5-methyl-2-thienyl}carbonyl)pyrimidin-4-yl]amino}cyclopentyl]methyl sulfamate]
Concentration 0.111 μM
  inhibition at 0.111 µM: 98%

## Cc1sc(C(=O)c2cncnc2N[C@@H]2C[C@H](COS(N)(=O)=O)[C@@H](O)C2)cc1Cn1cc(Br)cn1 [I-39, [(1R,2S,4R)-4-{[5-({4-[(4-bromo-1H-pyrazol-1-yl)methyl]-5-methyl-2-thienyl}carbonyl)pyrimidin-4-yl]amino}-2-hydroxycyclopentyl]methyl sulfamate]
Concentration 0.111 μM
  inhibition at 0.111 µM: 98%

## NS(=O)(=O)OC[C@H]1C[C@@H](Nc2ncncc2C(=O)c2cc(Cc3cccc(Cl)c3)cs2)C[C@@H]1O [I-43, {(1R,2S,4R)-4-[(5-{[4-(3-chlorobenzyl)-2-thienyl]carbonyl}pyrimidin-4-yl)amino]-2-hydroxycyclopentyl}methyl sulfamate]
Concentration 0.111 μM
  inhibition at 0.111 µM: 99%

## COCc1sc(C(=O)c2cncnc2N[C@@H]2C[C@H](COS(N)(=O)=O)[C@@H](O)C2)cc1Cc1cccc(Cl)c1 [I-44, {(1R,2S,4R)-4-[(5-{[4-(3-chlorobenzyl)-5-(methoxymethyl)-2-thienyl]carbonyl}pyrimidin-4-yl)amino]-2-hydroxycyclopentyl}methyl sulfamate]
Concentration 0.111 μM
  inhibition at 0.111 µM: 100%
Class symbols A/B/C
  IC50: < 10 nM

## Cc1cccc(Cc2cc(C(=O)c3cncnc3N[C@@H]3C[C@H](COS(N)(=O)=O)[C@@H](O)C3)sc2C)c1 [I-45, {(1R,2S,4R)-2-hydroxy-4-[(5-{[5-methyl-4-(3-methylbenzyl)-2-thienyl]carbonyl}pyrimidin-4-yl)amino]cyclopentyl}methyl sulfamate]
Concentration 0.111 μM
  inhibition at 0.111 µM: 99%
Class symbols A/B/C
  IC50: < 10 nM

## NS(=O)(=O)OC[C@H]1C[C@@H](Nc2ncncc2C(=O)c2cc(Cc3cccc(Br)n3)c(Cl)s2)C[C@@H]1O [I-46, [(1R,2S,4R)-4-{[5-({4-[(6-bromopyridin-2-yl)methyl]-5-chloro-2-thienyl}carbonyl)pyrimidin-4-yl]amino}-2-hydroxycyclopentyl]methyl sulfamate]
Concentration 0.111 μM
  inhibition at 0.111 µM: 98%

## Cc1sc(C(=O)c2cncnc2N[C@@H]2C[C@H](COS(N)(=O)=O)[C@@H](O)C2)cc1Cc1cccc(Cl)c1 [I-51, {(1R,2S,4R)-4-[(5-{[4-(3-chlorobenzyl)-5-methyl-2-thienyl]carbonyl}pyrimidin-4-yl)amino]-2-hydroxycyclopentyl}methyl sulfamate]
Concentration 0.111 μM
  inhibition at 0.111 µM: 100%
Class symbols A/B/C
  IC50: < 10 nM

## Cc1sc(C(=O)c2cncnc2N[C@@H]2C[C@H](COS(N)(=O)=O)[C@@H](O)C2)cc1Cc1cccc(Br)c1 [I-52, {(1R,2S,4R)-4-[(5-{[4-(3-bromobenzyl)-5-methyl-2-thienyl]carbonyl}pyrimidin-4-yl)amino]-2-hydroxycyclopentyl}methyl sulfamate]
Concentration 0.111 μM
  inhibition at 0.111 µM: 99%
Class symbols A/B/C
  IC50: < 10 nM

## NS(=O)(=O)OC[C@H]1C[C@@H](Nc2ncncc2C(=O)c2cc(Cc3cccc(Br)n3)cs2)C[C@@H]1O [I-53, [(1R,2S,4R)-4-{[5-({4-[(6-bromopyridin-2-yl)methyl]-2-thienyl}carbonyl)pyrimidin-4-yl]amino}-2-hydroxycyclopentyl]methyl sulfamate]
Concentration 0.111 μM
  inhibition at 0.111 µM: 99%

## Cc1sc(C(=O)c2cncnc2N[C@@H]2C[C@H](COS(N)(=O)=O)[C@@H](O)C2)cc1Cn1cc(Cl)cn1 [I-55, [(1R,2S,4R)-4-{[5-({4-[(4-chloro-1H-pyrazol-1-yl)methyl]-5-methyl-2-thienyl}carbonyl)pyrimidin-4-yl]amino}-2-hydroxycyclopentyl]methyl sulfamate]
Concentration 0.111 μM
  inhibition at 0.111 µM: 97%

## Cc1cccc(Cc2coc(C(=O)c3cncnc3N[C@@H]3C[C@H](COS(N)(=O)=O)[C@@H](O)C3)c2)c1 [I-57, [(1R,2S,4R)-2-hydroxy-4-({5-[4-(3-methylbenzyl)-2-furoyl]pyrimidin-4-yl}amino)cyclopentyl]methyl sulfamate]
Concentration 0.111 μM
  inhibition at 0.111 µM: 98%

## NS(=O)(=O)OC[C@H]1C[C@@H](Nc2ncncc2C(=O)c2cc(Cc3cccc(Br)c3)cs2)C[C@@H]1O [I-59, {(1R,2S,4R)-4-[(5-{[4-(3-Bromobenzyl)-2-thienyl]carbonyl}pyrimidin-4-yl)amino]-2-hydroxycyclopentyl}methyl sulfamate]
Concentration 0.111 μM
  inhibition at 0.111 µM: 99%

## Cc1cccc(Cc2csc(C(=O)c3cncnc3N[C@@H]3C[C@H](COS(N)(=O)=O)[C@@H](O)C3)c2)c1 [I-60, {(1R,2S,4R)-2-hydroxy-4-[(5-{[4-(3-methylbenzyl)-2-thienyl]carbonyl}pyrimidin-4-yl)amino]cyclopentyl}methyl sulfamate]
Concentration 0.111 μM
  inhibition at 0.111 µM: 99%

## NS(=O)(=O)OC[C@H]1C[C@@H](Nc2ncncc2C(=O)c2cc(Cc3ccc(F)c(Cl)c3)cs2)C[C@@H]1O [I-61, {(1R,2S,4R)-4-[(5-{[4-(3-chloro-4-fluorobenzyl)-2-thienyl]carbonyl}pyrimidin-4-yl)amino]-2-hydroxycyclopentyl}methyl sulfamate]
Concentration 0.111 μM
  inhibition at 0.111 µM: 98%
Class symbols A/B/C
  IC50: < 10 nM

## NS(=O)(=O)OC[C@H]1C[C@@H](Nc2ncncc2C(=O)c2cc(Cc3cccc(I)c3)cs2)C[C@@H]1O [I-62, {(1R,2S,4R)-2-hydroxy-4-[(5-{[4-(3-iodobenzyl)-2-thienyl]carbonyl}pyrimidin-4-yl)amino]cyclopentyl}methyl sulfamate]
Concentration 0.111 μM
  inhibition at 0.111 µM: 98%

## Cc1oc(C(=O)c2cncnc2N[C@@H]2C[C@H](COS(N)(=O)=O)[C@@H](O)[C@@H]2F)cc1Cc1cccc(Br)c1 [I-64, [(1R,2R,3R,4R)-4-({5-[4-(3-bromobenzyl)-5-methyl-2-furoyl]pyrimidin-4-yl}amino)-3-fluoro-2-hydroxycyclopentyl]methyl sulfamate]
Concentration 0.111 μM
  inhibition at 0.111 µM: 99%
Class symbols A/B/C
  IC50: < 10 nM

## Cc1cccc(Cc2cc(C(=O)c3cncnc3N[C@@H]3C[C@H](COS(N)(=O)=O)[C@@H](O)[C@@H]3F)oc2C)c1 [I-65, [(1R,2R,3R,4R)-3-fluoro-2-hydroxy-4-({5-[5-methyl-4-(3-methylbenzyl)-2-furoyl]pyrimidin-4-yl}amino)cyclopentyl]methyl sulfamate]
Concentration 0.111 μM
  inhibition at 0.111 µM: 99%
Class symbols A/B/C
  IC50: < 10 nM

## NS(=O)(=O)OC[C@H]1C[C@@H](Nc2ncncc2C(=O)c2cc(Cc3ccc(Cl)o3)cs2)C[C@@H]1O [I-66, [(1R,2S,4R)-4-{[5-({4-[(5-chloro-2-furyl)methyl]-2-thienyl}carbonyl)pyrimidin-4-yl]amino}-2-hydroxycyclopentyl]methyl sulfamate]
Concentration 0.111 μM
  inhibition at 0.111 µM: 98%
Class symbols A/B/C
  IC50: < 10 nM

## C#Cc1cccc(Cc2csc(C(=O)c3cncnc3N[C@@H]3C[C@H](COS(N)(=O)=O)[C@@H](O)C3)c2)c1 [I-70, {(1R,2S,4R)-4-[(5-{[4-(3-Ethynylbenzyl)-2-thenyl]carbonyl}pyrimidin-4-yl)amino-2-hydroxycyclopentyl}methyl sulfamate]
Concentration 0.111 μM
  Percent Inhibition: 98
Class symbols A/B/C
  IC50: < 10 nM

## NS(=O)(=O)OC[C@H]1C[C@@H](Nc2ncncc2C(=O)c2cc(Cc3cccc(Cl)n3)cs2)C[C@@H]1O [I-71, [(1R,2S,4R)-4-{[5-({4-[(6-chloropyridin-2-yl)methyl]-2-thienyl}carbonyl)pyrimidin-4-yl]amino}-2-hydroxycyclopentyl]methyl sulfamate]
Concentration 0.111 μM
  inhibition at 0.111 µM: 98%

## NS(=O)(=O)OC[C@H]1C[C@@H](Nc2ncncc2C(=O)c2cc(Cc3cccc(Cl)c3)c(Cl)o2)C[C@@H]1O [I-72, [(1R,2S,4R)-4-({5-[5-chloro-4-(3-chlorobenzyl)-2-furoyl]pyrimidin-4-yl}amino)-2-hydroxycyclopentyl]methyl sulfamate]
Concentration 0.111 μM
  inhibition at 0.111 µM: 98%
Class symbols A/B/C
  IC50: < 10 nM
